Data taken from publication PMC10132233 (Journal of Enzyme Inhibition and Medicinal Chemistry, 2023).

How the values were obtained:
[1] = biological target: T1, fibroblast growth factor receptor 1 (FGFR1) (Homo sapiens, UniProt P11362); assay: Small kinase panel, FGFR1; type: biochemical; conditions: read-out: % kinase inhibition (relative to DMSO control) FGFR1
T1 construct: purchased Reaction Biology Co. (Malvern, PA)
Method: Enzyme inhibitory assays were carried out as described in our previous reports in the literature. […] The HotSpot assay platform includes specific kinase/substrate pairs and required cofactors. The base reaction buffer consisted of 20 mM Hepes (pH 7.5), 10 mM MgCl2, 1 mM EGTA, 0.02% Brij35, 0.02 mg/mL BSA, 0.1 mM Na3VO4, 2 mM DTT, and 1% DMSO. The tested compounds were dissolved in 100% DMSO to a specific concentration, and serial dilution was conducted. The reaction mixture containing the tested compound and 33P-ATP was incubated at room temperature for 2 h, and radioactivity was detected using the filter-binding method.

[2] = test system: 22RV1 prostate carcinoma cell line; assay: MTT cytotoxicity assay, 22RV1; type: cell-based; conditions: Homo sapiens, 24 h
From the text: Accordingly, we aimed to investigate the cytotoxic potential of this new series against prostate carcinoma cell lines. […] The potent nanomolar cell-based activity of this series of compounds over the tested prostate carcinoma cell line could be attributed to other possible targets in addition to EGFR and HER2 receptors. The presence of the 2-nitroimidazole moiety in the chemical structure of compounds 9a–h could develop possible covalent bonds between the nitroimidazole moiety and some cellular proteins.
Prostate cancer cell lines (PC3 and 22RV1) of American Type Culture Collection (ATCC) were obtained from Korean Cell Center (KCL). PC3 and 22RV1 cell lines were cultured in Roswell Park Memorial Institute Medium (RPMI) 1640 and Dulbecco’s modified Eagle’s medium (DMEM) (GenDepot, Barker, TX) supplemented with 1% penicillin–streptomycin and 10% foetal bovine serum (FBS). The cells were maintained at 37 °C in a 5% CO2 with a 95% humid atmosphere.
To further analyse the intracellular cytotoxicity effect of the as-synthesised compounds, MTT assay was performed. Moreover, the experiments were divided into subcategories. In each group, cancer cells were first seeded in 96-well plates (4 × 10^4 cells per well) and then incubated for 24 h at 37 °C in a 5% CO2-containing atmosphere. Subsequently, the medium from the culture plate was removed, and 100 µL of RPMI media containing different concentrations of compounds (0.01, 0.005, 0.0025, 0.00125, and 0.000625 µM) were then added into the cell lines in each well and incubated for 24 h in a 5% CO2 humidified incubator at 37 °C. Afterwards, MTT solution (150 μL, 1 mg/mL) was added to each well, replacing the media-containing compounds. After 4 h of incubation, the MTT reagent was removed, and 200 μL of DMSO was then added to dissolve the formazan crystals, and colour intensity was measured at a wavelength of 540 nm using a BioTek Synergy H1 instrument (BioTek, Winooski, VT). IC50 was calculated according to the equation of Boltzmann sigmoidal concentration–response curve using Graph Pad Prism 5 (La Jolla, CA).

22RV1 cells = assay: Apoptosis analysis (Annexin V-PE/DAPI), 22RV1; type: cell-based, human; conditions: 22RV1, compound at its IC50, 24 h
Method: (§1) The control PC3 and 22RV1 cells and compound-treated cells were stained with PE-Annexin V and DAPI for a more appropriate cell death examination, and the cellular fluorescence analysis was then performed using ADAMII LS (Figures 4–6). Apoptosis is a type of programmed cell death that can be detected using Annexin V and the DAPI reagent. On plasma membranes, annexin V binds to […] and DAPI can bind to DNA in cells. The dot plot and image data detect early and late apoptotic cells using these two fluorophores. […] Moreover, compound 9f-treated PC3 cells went through early apoptosis (6.27%), and late apoptosis phase (16.94%) (Figures 4(D) and 6). Likewise, the fluorescence images for 22RV1 (Figure 5) and PC3 (Figure 6) cells complement the dot plot data, as higher fluorescence of DAPI and RF images clearly distinguished compound 9f-treated cells from control. […]
(§2) Annexin V conjugated to fluorochromes (PE) retains its high affinity for phosphatidylserine (PS), making it a sensitive probe for flow cytometric analysis of apoptotic cells. […] When apoptosis is measured over time, cells can often be tracked from PE Annexin V and DAPI negative (viable, or no measurable apoptosis), to PE Annexin V positive and DAPI negative (early apoptosis), and finally to PE Annexin V and DAPI positive (end stage apoptosis and death). […]

PC3 cells = assay: Apoptosis analysis (Annexin V-PE/DAPI), PC3; type: cell-based, human; conditions: PC3, compound at its IC50, 24 h
Method: as §1, §2

T1 sequence (P11362 22-822): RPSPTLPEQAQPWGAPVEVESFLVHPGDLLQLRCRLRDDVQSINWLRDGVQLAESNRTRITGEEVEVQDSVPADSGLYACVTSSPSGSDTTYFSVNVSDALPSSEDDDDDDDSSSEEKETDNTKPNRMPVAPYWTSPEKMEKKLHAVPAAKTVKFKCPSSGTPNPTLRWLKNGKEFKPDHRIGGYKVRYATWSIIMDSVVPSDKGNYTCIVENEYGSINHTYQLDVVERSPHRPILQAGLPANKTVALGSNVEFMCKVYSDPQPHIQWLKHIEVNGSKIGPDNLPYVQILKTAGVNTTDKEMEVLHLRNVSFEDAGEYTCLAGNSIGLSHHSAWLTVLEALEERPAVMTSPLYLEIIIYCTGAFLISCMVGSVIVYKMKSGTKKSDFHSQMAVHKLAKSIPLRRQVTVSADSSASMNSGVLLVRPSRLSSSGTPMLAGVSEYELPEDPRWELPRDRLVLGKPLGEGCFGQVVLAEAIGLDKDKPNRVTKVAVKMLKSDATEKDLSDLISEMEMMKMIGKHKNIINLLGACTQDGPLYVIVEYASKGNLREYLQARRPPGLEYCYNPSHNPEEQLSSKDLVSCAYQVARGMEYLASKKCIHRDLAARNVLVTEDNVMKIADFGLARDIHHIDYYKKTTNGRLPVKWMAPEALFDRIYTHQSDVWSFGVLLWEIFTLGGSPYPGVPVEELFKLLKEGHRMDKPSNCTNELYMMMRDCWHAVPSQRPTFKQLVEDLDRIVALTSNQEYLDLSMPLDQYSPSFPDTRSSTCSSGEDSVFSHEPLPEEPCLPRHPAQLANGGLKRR

## COc1cc2ncnc(Nc3ccc(Oc4cccc(C(F)(F)F)c4)c(Cl)c3)c2cc1OCCCCn1ccnc1[N+](=O)[O-] [Compound 9f, N-(3-Chloro-4-(3-(trifluoromethyl)phenoxy)phenyl)-7-methoxy-6-(4-(2-nitro-1H-imidazol-1-yl)butoxy)quinazolin-4-amine]
[1]
  inhibition at 10 µM: 5.54%
[2]
  IC50: 2.7 nM
22RV1 cells
  early apoptosis (E.A): 13.20%
  late apoptosis (L.A): 15.38%
PC3 cells
  early apoptosis (E.A): 6.27%
  late apoptosis (L.A): 16.94%
